{"source": "patent US6943147B2", "about": "“Cancer treatment using proANP peptides” (University of South Florida, priority 2003, dated 2005)", "test_system": "pancreatic adenocarcinoma cell line, ATCC number CRL-2119", "assay": "Number of pancreatic adenocarcinoma cells in culture, counted by microscope", "format": "cell-based, human", "text": "The pancreatic adenocarcinoma cell line, ATCC number CRL-2119, was derived in 1985 from a nude mouse xenograft of a primary tumor removed from the head of the pancreas. It is a moderate to well-differentiated pancreatic adenocarcinoma of ductal origin. These pancreatic adenocarcinoma cells are stimulated to proliferate in culture by insulin, insulin-like growth factor I (IGF-I), epidermal growth factor (EGF), and transforming growth factor alpha (TGF alpha). These adenocarcinoma cells contain significant concentrations of tumor-associated antigens CEA, CA 125, and CA 19-9. In culture, these adenocarcinoma cells form monolayers of morphologically heterogeneous polar epithelial cells. These cells are tumorgenic in that they form tumors in athymic nude mice at the site of inoculation that are histologically similar to the tumor of origin.\nPropagation of these cells was in Dulbecco's modified Eagle's plus Ham's F12-A 1:1 mixture of Dulbecco's modified Eagle's medium and Ham's F12 medium containing 1.2 g/L of sodium bicarbonate (Sigma Chemical Co., St. Louis, Mo.) supplemented with 15 mM HEPES and fetal bovine serum, 10%, at a temperature of 37° C. as recommended by the ATCC.\nThese pancreatic adenocarcinoma cells were subcultured (passaged) by removing spent (i.e., old) medium by aspiration, and then adding calcium and magnesium free Hank's Balanced Salt Solution with 0.25% trypsin and 0.03% ethylenediaminetetracetic acid (EDTA). The culture was allowed to sit at room temperature for 2 to 5 minutes. Fresh medium was added to the adenocarcinoma cells which were dispensed into new flasks, with subculture every 6 to 8 days. The growth medium was changed every three days.\nAfter these adenocarcinoma cells were subcultured for 24 hours, they were then seeded to coverslips and transferred to 24 microwell plates (NUCOLON, Roskilde Denmark), with 1 ml Dulbeco Modified Eagle's (DME)/[…] nutrient culture media (Sigma Chemical Co.) with 10% fetal bovine serum (Atlanta Biologicals, Norcross, Ga.). After 24 hours, wells were washed twice with Dulbecco's Modified Eagle's/Ham's F12 with 0.1% bovine serum albumin (Sigma-Aldrich, St. Louis, Mo.) and allowed to incubate in this serum free medium for an additional 24 hour period of serum deprivation. Serum-free media was utilized to remove all variables (EGF, etc.) present in serum in order that interpretation of any data obtained would be straightforward. After 24 hours of serum deprivation, media volume was reduced to 250 μL per well with or without the respective peptide hormones at their 1 μM concentrations (1% of this volume). The adenocarcinoma cells were then incubated for various periods of time (24, 48, 72, and 96 hours).At the end of the above time periods, hematoxylin was added for 5 minutes to make the cells more visible for counting, and then they were washed for 5 minutes. The coverslips were then placed face down on microscope slides with the addition of 6 μl of histologic grade phosphate buffered saline (PBS)/I-glycine that had been filtered immediately before use with a 0.22 μm polyethersulfone, nonpyrogenic, sterile, low protein binding membrane (Corning 43117, Corning Inc., Corning, N.Y.). The number of adenocarcinoma cells were then counted with a cell counter evaluating ten fields of the microscope slide at 40× along the X-axis with an Olympus BH-2 microscope (Atlanta, Ga.). This evaluation was repeated on six separate occasions with the number of adenocarcinoma cells reflecting 60 observations for each group, i.e., 60 observations for controls and 60 observations for each of the four groups with respective peptide hormones. The only variable in this investigation was whether one of the four peptide hormones was added to the pancreatic adenocarcinoma cells. Otherwise all the adenocarcinoma cells were treated the same, i.e., with same culture medium, time of incubation, and processing of cells for the various investigations. […]", "data": [{"substance": "vessel dilator: a.a. 31-67 of the 126 a.a. ANP prohormone; peptide hormone from Peninsula Laboratories", "values": [{"measurement": "decrease in the number of adenocarcinoma cells", "setting": "1 μM, 24 hours, vs untreated cells", "result": 65, "unit": "%"}, {"measurement": "number of adenocarcinoma cells", "setting": "1 μM, 24 hours, untreated 183.4+/−8", "result": "63.8+/−4 cells per high powered field"}, {"measurement": "number of cancer cells compared to controls", "setting": "1 μM, 48 hours", "result": 68, "unit": "%"}, {"measurement": "decrease in the number of adenocarcinoma cells", "setting": "1 μM, 72 hours, vs untreated cells", "result": 70, "unit": "%"}, {"measurement": "decrease in the number of adenocarcinoma cells", "setting": "1 μM, 96 hours, vs untreated cells", "result": 70, "unit": "%"}, {"measurement": "decrease in the number of adenocarcinoma cells", "setting": "time not stated", "result": 70, "unit": "%"}]}]}
